From patent publication US20230287416A1, “COMBINATORY TREATMENT OF SMA WITH SARNA AND MRNA MODULATORS” (RACTIGEN THERAPEUTICS, priority 2020, published 2023)

System: SMN2 mRNA
Experiment: RT-qPCR of SMN2FL and SMN2 Δ7 mRNA in brain, liver and spinal cord of SMA type III mice
Format: in vivo, mouse
Method: The combinatory effect of LNP-R6-04M1 with LNP-ASO-10-27 or with Risdiplam were in evaluated in vivo, in SMA type IU mice. Neonatal mice were divided into 10 treatment groups: • Treatment Group 1: administration of LNP-R6-04M1 via ICV injection (injected twice on P1 and P3 respectively, each with 10 ug of LNP-R6-04M1); • Treatment Group 2: administration of LNP-ASO-10-27 via ICV injection (injected twice on P1 and P3 respectively, each with 10 ug of LNP-ASO-10-27); • Treatment Group 3: administration of Risdiplam via IP injection on P1 at a concentration of 0.3 mg/kg; • Treatment Group 4: administration of Risdiplam via IP injection on P1 at a concentration of 1 mg/kg; • Treatment Group 5: administration of Risdiplam via IP injection on P1 at a concentration of 3 mg/kg; • Treatment Group 6: combinatory treatment via administration of LNP-R6-04M1 and LNP-ASO-10-27. LNP-R6-04M1 was administered via ICV injection on P1 (10 ug), while LNP-ASO-10-27 was administered via ICV injection on P3 (10 ug); • Treatment Group 7: combinatory treatment via administration of LNP-ASO-10-27 and LNP-R6-04M1. LNP-ASO-10-27 was administered via ICV injection on P1 (10 ug), while LNP-R6-04M1 was administered via ICV injection on P3 (10 ug); • Treatment Group 8: combinatory treatment of LNP-R6-04M1 and Risdiplam. LNP-R6-04M1 was injected on P1 (10 ug) via ICV injection, and Risdiplam was injected via IP injection on P3 at a concentration of 0.3 mg/kg; • Treatment Group 9: combinatory treatment of LNP-R6-04M1 and Risdiplam. LNP-R6-04M1 was injected on P1 (10 ug) via ICV injection, and Risdiplam was injected via IP injection on P3 at a concentration of 1 mg/kg;
The SMA type LII mice were treated saline twice on P1 (5 μL) and P3(5 μL) via subcutaneous (SC) injection. P1 and P3 means postnatal day 1 and day3;
Treatment Group 10: treatment of mice with saline SMN2FL and SMN2 Δ7 mRNA levels were quantified by RT-qPCR in tissues of the brain, liver and spinal cord.
For RNA isolation from cultured cells, total cellular RNA was isolated from treated cells using an RNeasy Plus Mini kit (Qiagen, Hilden, Germany) according to its manual. To isolated RNA from animal tissues, tissues were harvested and stored at RNA later (AM7021, Thermo Fisher). Total RNA was then isolated using MagPure Total RNA Micro LQ kit (Magen, R6621, China) by auto-pure96 machine (ALLSHENG, China). The resultant RNA (1 μg) was reverse transcribed into cDNA by using a PrimeScript RT kit containing gDNA Eraser (Takara, Shlga, Japan). The resultant cDNA was amplified in an ABI 7500 Fast Real-time PCR System (Applied Biosystems; Foster City, Calif.) using SYBR Premix Ex Taq 11 (Takara, Shlga, Japan) reagents and primers which specifically amplified full-length (SMN2FL) or A7 SMN2 mRNA (SMN2 Δ7) (FIG. 1). The reaction conditions were: 95° C. for 3 seconds (1 cycle) and 60° C. for 30 seconds (40 cycles). Amplification of TBP gene served as an internal control.
All animal procedures were conducted by certified laboratory personnel using protocols consistent with local and state regulations and approved by the Institutional Animal Care and Use Committee. SMA-like mice created by homozygous knock-out of mouse Smn exon 7 with transgene of human SMN2 (Smn−/−SMN2+/−) as previously described Hsieh-Li et al. (Hsieh-Li, H. M., et al. A mouse model for spinal muscular atrophy. Nature Genet (2000) were obtained from Jackson Laboratories. Tail snips were gathered at postnatal day 0 (P0), and each pup was identified by paw tattooing and genotyped by PCR analysis using a set of 3 specific primers: S1, 5′-[…]-3′, and S2, 5′-[…]-3′ (1,150 bp band for wild type alleles) and S1 and H1, 5′-[…]-3′ (950 bp band for mutant alleles). The PCR products were detected by 1% agarose gel. Severe SMA mice (Smn^−/−, SMN^+/0) were generated. Littermates heterozygous for mouse Smn (Smn1^+/−, SMN2^+/−) were used as controls. […]

[1] = brain, IP on P1, 0.3 mg/kg (Treatment Group 3)
[2] = brain, IP on P1, 1 mg/kg (Treatment Group 4)
[3] = brain, IP on P1, 3 mg/kg (Treatment Group 5)
[4] = liver, IP on P1, 0.3 mg/kg (Treatment Group 3)
[5] = liver, IP on P1, 1 mg/kg (Treatment Group 4)
[6] = liver, IP on P1, 3 mg/kg (Treatment Group 5)

## Cc1cn2nc(-c3cc(=O)n4cc(N5CCNC6(CC6)C5)ccc4n3)cc(C)c2n1 [Risdiplam]
[1]
  SMN2FL mRNA expression, fold relative to control: 1.1 fold
  SMN2 Δ7 mRNA expression, fold relative to control: 1.0 fold
[2]
  SMN2FL mRNA expression, fold relative to control: 1.3 fold
  SMN2 Δ7 mRNA expression, fold relative to control: 1.0 fold
[3]
  SMN2FL mRNA expression, fold relative to control: 1.0 fold
  SMN2 Δ7 mRNA expression, fold relative to control: 1.0 fold
[4]
  SMN2FL mRNA expression, fold relative to control: 1.1 fold
  SMN2 Δ7 mRNA expression, fold relative to control: 1.0 fold
[5]
  SMN2FL mRNA expression, fold relative to control: 1.5 fold
  SMN2 Δ7 mRNA expression, fold relative to control: 0.9 fold
[6]
  SMN2FL mRNA expression, fold relative to control: 1.0 fold
  SMN2 Δ7 mRNA expression, fold relative to control: 1.0 fold
